How the values were obtained:
[1] = alcohol such as tertiary butanol; cited from earlier work
[2] = Visual solubility of carmustine in alcoholic solvents; format: physicochemical
[3] = Stability of carmustine solution in TBA or dehydrated ethanol; format: physicochemical; conditions: storage at room temperature

O=NN(CCCl)C(=O)NCCCl [Carmustine, 1,3-bis (2-chloroethyl)-1-nitrosourea]
solubility in alcohol, dichloromethane and ether [1]: very soluble | precipitation on storage, TBA solution ([2]; TBA solution stored at about 2 to about 8° C.): Neither of the solutions showed any sign of precipitation | solubility in TBA ([2]; TBA, room temperature, visually determined): > 1 g per mL | precipitation on storage, dehydrated ethanol solution ([2]; dehydrated ethanol solution stored at about 2 to about 8° C.): Neither of the solutions showed any sign of precipitation | solubility in dehydrated ethanol ([2]; dehydrated ethanol, room temperature, visually determined): > 1 g per mL | time solution is stable, TBA ([3]; solution in TBA): at least 24 hrs | time solution is stable, dehydrated ethanol ([3]; solution in dehydrated ethanol): at least 24 hrs

From US10869848B2 (priority 2014, dated 2020)
